{
  "source": "patent US20080188560A1",
  "about": "“Cosmetic Compositions and Methods For Sensory Cooling” (priority 2004, published 2008)",
  "assay": "Cooling effect/cooling potential: heat of fusion by Differential Scanning Calorimeter",
  "format": "physicochemical",
  "settings": "Pyris 1 DSC, sample cooled to −10° C., heated 10° C. per minute up to 50° C., area under the peak",
  "protocol": "Four samples of the composition are prepared with 10%, 20% and 40% of the stearyl heptanoate in three samples and 40% Marrix (C12-C15 Alkyl Furmurate) in a fourth sample. Each sample is first weighed and subsequently cooled to −10° C. A Calorimeter (Pyris 1 Differential Scanning Calorimeter from Perkin Elmer) is used to apply heat to each sample at one minute increments, 10° C. per minute up to 50° C. The Calorimeter measures the heat of the sample at each increment. The resulting readings of heat are plotted against time for each sample. The Calorimeter measures the area under the peak on the plot to calculate the Heat of fusion (J/g) for each sample. The heat of fusion for the sample is the energy required to melt the sample from a solid form to a liquid form. The heat of fusion for the sample identifies the amount of energy the sample can absorb. Therefore, to correlate to the cooling on the skin, the higher the heat of fusion of a sample/material, the more heat the sample/material will absorb from the skin upon application to correspondingly create a cooling sensation on the skin.",
  "data": [
    {"compound": "CCCCCCCCCCCCCCCCCCOC(=O)CCCCCC", "note": "[Active alone, Stearyl Heptanoate]", "values": [
      {"measurement": "(ΔH) Heat of fusion", "value": 174.3, "unit": "J/g"},
      {"measurement": "(ΔH) Heat of fusion", "setting": "listed as active alone", "value": 174.3, "unit": "J/g"},
      {"measurement": "(ΔH) Heat of fusion", "setting": "listed as stearyl heptanoate", "value": 74.5, "unit": "J/g"}
    ]}
  ]
}
